# Experiments:
# [1] = molecular target: T1, prolyl-endopeptidase in rat cerebral cortex (Rattus norvegicus, UniProt O70196); assay: In vivo inhibition of prolyl-endopeptidase in rat cerebral cortex after IP administration; conditions: 1 mg/kg IP, 30 minutes before preparation of the tissue extract
# T1 sequence (O70196 1-710): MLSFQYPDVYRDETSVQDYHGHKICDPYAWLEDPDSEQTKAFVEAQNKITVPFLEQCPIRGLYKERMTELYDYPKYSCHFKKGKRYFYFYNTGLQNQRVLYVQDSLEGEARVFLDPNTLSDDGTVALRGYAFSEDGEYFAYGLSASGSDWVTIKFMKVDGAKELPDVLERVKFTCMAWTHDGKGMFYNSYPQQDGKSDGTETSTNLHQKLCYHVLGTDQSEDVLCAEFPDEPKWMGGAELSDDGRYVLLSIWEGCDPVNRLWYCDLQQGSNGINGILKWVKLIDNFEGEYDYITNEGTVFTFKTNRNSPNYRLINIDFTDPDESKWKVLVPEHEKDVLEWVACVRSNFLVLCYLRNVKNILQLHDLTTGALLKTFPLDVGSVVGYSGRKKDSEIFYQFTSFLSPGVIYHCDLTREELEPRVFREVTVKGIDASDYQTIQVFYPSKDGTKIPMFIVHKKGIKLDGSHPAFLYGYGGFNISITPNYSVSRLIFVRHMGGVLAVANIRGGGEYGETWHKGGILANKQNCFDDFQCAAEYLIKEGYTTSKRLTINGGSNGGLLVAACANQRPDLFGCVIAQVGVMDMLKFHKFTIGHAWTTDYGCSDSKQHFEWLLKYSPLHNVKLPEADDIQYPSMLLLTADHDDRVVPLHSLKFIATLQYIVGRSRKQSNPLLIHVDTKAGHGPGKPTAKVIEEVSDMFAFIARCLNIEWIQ
# [2] = molecular target: Prolyl-endopeptidase; assay: biochemical
# [3] = molecular target: T1, prolyl-endopeptidase in rat cerebral cortex; assay: Duration of action with respect to in vivo inhibition of prolyl-endopeptidase in rat cerebral cortex; conditions: IP
# [4] = molecular target: T1, prolyl-endopeptidase in rat cerebral cortex; assay: Oral bioavailability estimated from inhibiting effect after oral versus IP administration; format: in vivo; conditions: inhibiting effect (%) after oral divided by that after IP administration, 30 or 60 minutes
# [5] = molecular target: T1, prolyl-endopeptidase in rat cerebral cortex; assay: In vitro inhibition of prolyl-endopeptidase in rat cerebral cortex extract (substrate TRH-pNitroaniline); format: biochemical; conditions: 37° C.
# Prolyl-endopeptidase, sequence (P27028 21-705): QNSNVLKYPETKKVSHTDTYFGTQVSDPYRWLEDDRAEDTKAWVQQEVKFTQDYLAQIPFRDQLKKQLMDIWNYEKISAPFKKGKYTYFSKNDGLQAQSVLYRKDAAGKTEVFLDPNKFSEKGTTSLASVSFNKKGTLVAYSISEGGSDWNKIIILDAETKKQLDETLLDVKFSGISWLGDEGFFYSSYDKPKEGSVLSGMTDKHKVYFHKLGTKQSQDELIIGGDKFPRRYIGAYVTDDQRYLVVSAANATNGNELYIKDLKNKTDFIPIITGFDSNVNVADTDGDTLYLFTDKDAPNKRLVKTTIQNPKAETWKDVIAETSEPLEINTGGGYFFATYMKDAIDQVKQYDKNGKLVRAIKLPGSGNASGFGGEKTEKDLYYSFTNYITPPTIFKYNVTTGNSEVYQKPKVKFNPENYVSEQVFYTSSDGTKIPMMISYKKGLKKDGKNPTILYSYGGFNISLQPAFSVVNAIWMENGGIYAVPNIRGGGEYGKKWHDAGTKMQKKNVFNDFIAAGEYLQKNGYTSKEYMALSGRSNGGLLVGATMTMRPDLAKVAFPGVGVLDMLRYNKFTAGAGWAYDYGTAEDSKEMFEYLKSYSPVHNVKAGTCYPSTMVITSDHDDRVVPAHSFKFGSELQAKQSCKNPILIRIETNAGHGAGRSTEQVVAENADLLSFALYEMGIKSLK
inhibition at 1 mg/kg [1],IC50 [2],Compound,other results
41%,,"O=C([C@@H]1C[C@@H]2CCCC[C@@H]2N1C(=O)C1CC1Cc1ccccc1)N1CCCC1 (single isomer, unassigned) [Example 14]",
49%,3 nM,"O=C([C@@H]1C2CCC(CC2)N1C(=O)[C@@H]1C[C@H]1c1cccc(C(F)(F)F)c1)N1CCCC1 [Example 6, (3S)-2-{(1R,2R)-[2-(3-Trifluoromethylphenyl)-1-cyclopropyl]carbonyl}-3-[(pyrrolidin-1-yl)carbonyl]-2-azabicyclo[2.2.2]octane]",

# Further lines, the compound ahead of its results:
Compound,inhibition at 1 mg/kg [1],IC50 [2],other results
O=C([C@@H]1C[C@@H]2CCCC[C@@H]2N1C(=O)[C@@H]1C[C@H]1c1ccc(F)cc1)N1CCCC1 [Example 1],54%,14 nM,t1/2 (time for which the inhibiting effect is equal to 50 % of the maximum effect measured at 30 minutes) ([3]; 1 mg/kg): 7 h; OBI (oral bioavailability index) ([4]; 1 mg/kg): 0.90
"O=C([C@@H]1C2CCC(CC2)N1C(=O)[C@@H]1C[C@H]1c1ccc(F)cc1)N1CCCC1 [Example 2, (3S)-2-{(1R,2R)-[2-(4-Fluorophenyl)-1-cyclopropyl]carbonyl}-3-[(pyrrolidin-1-yl)carbonyl]-2-azabicyclo[2.2.2]octane]",42%,40 nM,t1/2 (time for which the inhibiting effect is equal to 50 % of the maximum effect measured at 30 minutes) ([3]; 1 mg/kg): 7 h
"O=C([C@@H]1C[C@@H]2CCCC[C@@H]2N1C(=O)[C@@H]1C[C@H]1c1cccs1)N1CCCC1 [Example 3, (2S,3aS,7aS)-1-{(1R,2R)-[2-(2-Thienyl)-1-cyclopropyl]carbonyl}-2-[(pyrrolidin-1-yl)carbonyl]perhydroindole]",59%,14 nM,IC50 [5]: 1.4 nM
"O=C([C@@H]1C[C@@H]2CCCC[C@@H]2N1C(=O)[C@@H]1C[C@H]1c1cccc(C(F)(F)F)c1)N1CCCC1 [Example 5, (2S,3aS,7aS)-1-{(1R,2R)-[2-(3-Trifluoromethylphenyl)-1cyclopropyl]carbonyl}-2-[(pyrrolidin-1-yl)carbonyl]perhydroindole]",58%,,IC50 [5]: 1 nM
"O=C[C@@H]1CCCN1C(=O)CCC(=O)NCc1ccc(Cl)cc1 [ONO, (S)-1-[N-4-chlorobenzylsuccinamoyl] pyrrolidine-2-carbaldehyde, reference compound]",,,t1/2 (time for which the inhibiting effect is equal to 50 % of the maximum effect measured at 30 minutes) ([3]; 30 mg/kg): 1 h
"O=C([C@@H]1CSCN1C(=O)CCCc1ccccc1)N1CCCC1 [Zeria, N-(4-phenylbutanoyl)-L-thiaprolylpyrrolidineimide, reference compound]",,,t1/2 (time for which the inhibiting effect is equal to 50 % of the maximum effect measured at 30 minutes) ([3]; 30 mg/kg): 1 h; OBI (oral bioavailability index) ([4]; 30 mg/kg): 0.30
